According to patent US12599136B2, “Substituted isophthalic acid diamides and their use as herbicides” (Bayer Aktiengesellschaft, priority 2020, dated 2026):

How the values were obtained:
Assay type in all cases: in vivo
[1] = system: Cyperus esculentus; experiment: Pre-emergence herbicidal action against CYPES; settings: visual score after 3 weeks vs untreated controls
Outline: (§1)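 Sandy loam pots, seeds covered with soil, then surface-treated with WP or EC formulations at 600–800 l/ha water plus 0.2% wetting agent. Greenhouse, 3 weeks. Percent damage vs untreated controls.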

[2] = system: Matricaria inodora; experiment: Post-emergence herbicidal action against MATIN; settings: visual assessment about 3 weeks after treatment
Outline: (§2)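 Herbicidal action is a visual percentage rating (0% = as untreated control, 100% = plants dead) made roughly 3 weeks after treatment. Plants were grown in sandy loam in the greenhouse and treated at the one-leaf stage, 2 to 3 weeks post-sowing. Treatment was a foliar spray of wettable-powder or emulsion-concentrate formulations at 600 to 800 l/ha water plus 0.2% wetting agent.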

[3] = system: Veronica persica; experiment: Post-emergence herbicidal action against VERPE; settings: 80 g/ha, visual assessment about 3 weeks after treatment
Outline: as §2

[4] = system: Avena fatua; experiment: Pre-emergence herbicidal action against AVEFA; settings: visual score after 3 weeks vs untreated controls
Outline: as §1

[5] = system: Echinochloa crus-galli; experiment: Post-emergence herbicidal action against ECHCG; settings: visual assessment about 3 weeks after treatment
Outline: as §2

[6] = system: Viola tricolor; experiment: Post-emergence herbicidal action against VIOTR
Outline: as §2

[7] = system: Polygonum convolvulus; experiment: Post-emergence herbicidal action against POLCO; settings: 80 g/ha, visual assessment about 3 weeks after treatment
Outline: as §2

[8] = system: Alopecurus myosuroides; experiment: Post-emergence herbicidal action against ALOMY
Outline: as §2

[9] = system: Amaranthus retroflexus; experiment: Post-emergence herbicidal action against AMARE; settings: visual assessment about 3 weeks after treatment
Outline: as §2

[10] = system: Matricaria inodora; experiment: Pre-emergence herbicidal action against MATIN; settings: visual score after 3 weeks vs untreated controls
Outline: as §1

[11] = system: Pharbitis purpurea; experiment: Post-emergence herbicidal action against PHBPU; settings: visual assessment about 3 weeks after treatment
Outline: as §2

[12] = system: Abutilon theophrasti; experiment: Pre-emergence herbicidal action against ABUTH; settings: visual score after 3 weeks vs untreated controls
Outline: as §1

[13] = system: Setaria viridis; experiment: Pre-emergence herbicidal action against SETVI
Outline: as §1

[14] = system: Hordeum murinum; experiment: Post-emergence herbicidal action against HORMU
Outline: as §2

[15] = system: Cyperus esculentus; experiment: Post-emergence herbicidal action against CYPES; settings: 80 g/ha, visual assessment about 3 weeks after treatment
Outline: as §2

[16] = system: Veronica persica; experiment: Pre-emergence herbicidal action against VERPE
Outline: as §1

[17] = system: Stellaria media; experiment: Pre-emergence herbicidal action against STEME
Outline: as §1

[18] = system: Abutilon theophrasti; experiment: Post-emergence herbicidal action against ABUTH
Outline: as §2

[19] = system: Pharbitis purpurea; experiment: Pre-emergence herbicidal action against PHBPU; settings: visual score after 3 weeks vs untreated controls
Outline: as §1

[20] = system: Lolium rigidum; experiment: Post-emergence herbicidal action against LOLRI; settings: 80 g/ha
Outline: as §2

[21] = system: Alopecurus myosuroides; experiment: Pre-emergence herbicidal action against ALOMY; settings: visual score after 3 weeks vs untreated controls
Outline: as §1

[22] = system: Polygonum convolvulus; experiment: Pre-emergence herbicidal action against POLCO
Outline: as §1

[23] = system: Stellaria media; experiment: Post-emergence herbicidal action against STEME; settings: visual assessment about 3 weeks after treatment
Outline: as §2

[24] = system: Echinochloa crus-galli; experiment: Pre-emergence herbicidal action against ECHCG; settings: visual score after 3 weeks vs untreated controls
Outline: as §1

[25] = system: Avena fatua; experiment: Post-emergence herbicidal action against AVEFA; settings: 80 g/ha, visual assessment about 3 weeks after treatment
Outline: as §2

[26] = system: Lolium rigidum; experiment: Pre-emergence herbicidal action against LOLRI
Outline: as §1

[27] = system: Amaranthus retroflexus; experiment: Pre-emergence herbicidal action against AMARE; settings: visual score after 3 weeks vs untreated controls
Outline: as §1

[28] = system: Viola tricolor; experiment: Pre-emergence herbicidal action against VIOTR
Outline: as §1

[29] = system: Hordeum murinum; experiment: Pre-emergence herbicidal action against HORMU; settings: visual score after 3 weeks vs untreated controls
Outline: as §1

[30] = system: Setaria viridis; experiment: Post-emergence herbicidal action against SETVI; settings: visual assessment about 3 weeks after treatment
Outline: as §2

`Cn1nnnc1NC(=O)c1ccc(C(F)(F)F)c(C(=O)n2cccn2)c1Cl` [Example 1-153] was tested, and the “Pre-emergence action against CYPES” value ([1]; 20 g/ha) was 100%, the “Pre-emergence action against CYPES” value ([1]; 80 g/ha) was 100% and the “Pre-emergence action against CYPES” value ([1]; 320 g/ha) was 100%. For the same molecule, the “Post-emergence action against MATIN in %” value ([2]; 5 g/ha) was 90%, the “Post-emergence action against MATIN in %” value ([2]; 20 g/ha) was 90% and the “Post-emergence action against MATIN in %” value ([2]; 80 g/ha) was 100%. The “Post-emergence action against VERPE in %” value [3] was 80%, the “Pre-emergence action against AVEFA” value ([4]; 80 g/ha) was 100% and the “Pre-emergence action against AVEFA” value ([4]; 320 g/ha) was 100%. The “Post-emergence action against ECHCG in %” value ([5]; 5 g/ha) was 90%, the “Post-emergence action against ECHCG in %” value ([5]; 20 g/ha) was 100% and the “Post-emergence action against ECHCG in %” value ([5]; 80 g/ha) was 100%. The “Post-emergence action against VIOTR in %” value ([6]; 5 g/ha) was 80%, the “Post-emergence action against VIOTR in %” value ([6]; 20 g/ha) was 90% and the “Post-emergence action against VIOTR in %” value ([6]; 80 g/ha) was 90%. For the same molecule, the “Post-emergence action against POLCO in %” value [7] was 90%, the “Post-emergence action against ALOMY” value ([8]; 5 g/ha) was 80% and the “Post-emergence action against ALOMY” value ([8]; 20 g/ha) was 90%. The “Post-emergence action against ALOMY” value ([8]; 80 g/ha) was 90%, the “Post-emergence action against AMARE in %” value ([9]; 5 g/ha) was 100% and the “Post-emergence action against AMARE in %” value ([9]; 20 g/ha) was 100%. The “Post-emergence action against AMARE in %” value ([9]; 80 g/ha) was 100%, the “Pre-emergence action against MATIN” value ([10]; 20 g/ha) was 90% and the “Pre-emergence action against MATIN” value ([10]; 80 g/ha) was 100%. The “Pre-emergence action against MATIN” value ([10]; 320 g/ha) was 100%, the “Post-emergence action against PHBPU in %” value ([11]; 5 g/ha) was 80% and the “Post-emergence action against PHBPU in %” value ([11]; 20 g/ha) was 90%. The “Post-emergence action against PHBPU in %” value ([11]; 80 g/ha) was 90%, the “Pre-emergence action against ABUTH” value ([12]; 20 g/ha) was 100% and the “Pre-emergence action against ABUTH” value ([12]; 80 g/ha) was 100%. For the same molecule, the “Pre-emergence action against ABUTH” value ([12]; Dosage column 320 g/ha (heading prints 3200 g/ha)) was 100%, the “Pre-emergence action against SETVI” value ([13]; 20 g/ha) was 100% and the “Pre-emergence action against SETVI” value ([13]; 80 g/ha) was 100%. For the same molecule, the “Pre-emergence action against SETVI” value ([13]; 320 g/ha) was 100%, the “Post-emergence action against HORMU in %” value ([14]; 20 g/ha) was 80% and the “Post-emergence action against HORMU in %” value ([14]; 80 g/ha) was 90%. For the same molecule, the “Post-emergence action against CYPES in %” value [15] was 90%, the “Pre-emergence action against VERPE” value ([16]; 80 g/ha) was 90% and the “Pre-emergence action against VERPE” value ([16]; 320 g/ha) was 100%. For the same molecule, the “Pre-emergence action against STEME” value ([17]; 20 g/ha) was 90%, the “Pre-emergence action against STEME” value ([17]; 80 g/ha) was 90% and the “Pre-emergence action against STEME” value ([17]; 320 g/ha) was 100%. The “Post-emergence action against ABUTH” value ([18]; 5 g/ha) was 90%, the “Post-emergence action against ABUTH” value ([18]; 20 g/ha) was 90% and the “Post-emergence action against ABUTH” value ([18]; 80 g/ha) was 90%. For the same molecule, the “Pre-emergence action against PHBPU” value ([19]; 80 g/ha) was 90%, the “Pre-emergence action against PHBPU” value ([19]; 320 g/ha) was 90% and the “Post-emergence action against LOLRI in %” value [20] was 90%. The “Pre-emergence action against ALOMY” value ([21]; 80 g/ha) was 80%, the “Pre-emergence action against ALOMY” value ([21]; 320 g/ha) was 100% and the “Pre-emergence action against POLCO” value ([22]; 80 g/ha) was 90%. For the same molecule, the “Pre-emergence action against POLCO” value ([22]; 320 g/ha) was 100%, the “Post-emergence action against STEME in %” value ([23]; 5 g/ha) was 100% and the “Post-emergence action against STEME in %” value ([23]; 20 g/ha) was 100%. The “Post-emergence action against STEME in %” value ([23]; 80 g/ha) was 100%, the “Pre-emergence action against ECHCG” value ([24]; 20 g/ha) was 100% and the “Pre-emergence action against ECHCG” value ([24]; 80 g/ha) was 100%. For the same molecule, the “Pre-emergence action against ECHCG” value ([24]; 320 g/ha) was 100%, the “Post-emergence action against AVEFA in %” value [25] was 100% and the “Pre-emergence action against LOLRI” value ([26]; 80 g/ha) was 80%. For the same molecule, the “Pre-emergence action against LOLRI” value ([26]; 320 g/ha) was 90%, the “Pre-emergence action against AMARE” value ([27]; 20 g/ha) was 100% and the “Pre-emergence action against AMARE” value ([27]; 80 g/ha) was 100%. For the same molecule, the “Pre-emergence action against AMARE” value ([27]; 320 g/ha) was 100%, the “Pre-emergence action against VIOTR” value ([28]; 80 g/ha) was 100% and the “Pre-emergence action against VIOTR” value ([28]; 320 g/ha) was 100%. The “Pre-emergence action against HORMU” value ([29]; 80 g/ha) was 80%, the “Pre-emergence action against HORMU” value ([29]; 320 g/ha) was 100% and the “Post-emergence action against SETVI in %” value ([30]; 20 g/ha) was 100%. The “Post-emergence action against SETVI in %” value ([30]; 80 g/ha) was 100%.
